In ChEMBL document CHEMBL1129550, “Synthesis and cyclic GMP phosphodiesterase inhibitory activity of a series of 6-phenylpyrazolo[3,4-d]pyrimidones” (J Med Chem, 1996):

How the values were obtained:
[1] = biological target: T1, cGMP-specific 3',5'-cyclic phosphodiesterase (Homo sapiens, UniProt O76074); test: Inhibition of Phosphodiesterase 5 from human
[2] = biological target: cGMP-specific 3',5'-cyclic phosphodiesterase (Rattus norvegicus, UniProt O54735); test: Compound was tested for inhibition of stimulation of rat aortic smooth muscle cells (RSMC); assay type: functional
[3] = biological target: T1, cGMP-specific 3',5'-cyclic phosphodiesterase; test: Inhibition of Phosphodiesterase 5 from human at dose 10 uM

IC50 [1] [nM] | EC50 [2] [nM] | inhibition [3] [%] | SMILES
1 | 1000 | – | CCCOc1ccc(NC(N)=S)cc1-c1nc2c(c(C)nn2C)c(=O)[nH]1
4 | 1500 | – | CCCOc1ccc(N(C)C)cc1-c1nc2c(c(C)nn2CC)c(=O)[nH]1
– | < 100 | – | CCCOc1ccc(-c2csc(C)n2)cc1-c1nc2c(c(C)nn2CC)c(=O)[nH]1
– | 200 | – | CCCOc1ccccc1-c1nc2c(c(C)nn2C)c(=O)[nH]1
20 | 200 | – | CCCOc1ccccc1-c1nc2c(c(C)nn2C(C)(C)C)c(=O)[nH]1
100 | 2500 | – | CCCOc1ccccc1-c1nc(O)c2ccsc2n1
70 | 2000 | – | CCCOc1ccccc1-c1nc2cnccc2c(=O)[nH]1
20 | < 100 | – | CCCOc1ccc(-c2n[nH]c(-c3ccccc3)n2)cc1-c1nc2c(c(C)nn2C)c(=O)[nH]1
1 | 150 | – | CCCOc1ccccc1-c1nc2c(c(C)nn2CCC)c(=O)[nH]1
300 | 7500 | – | CCCOc1ccccc1-c1nc2ncncc2c(=O)[nH]1
5 | 300 | – | CCCOc1ccc(N(C)C)cc1-c1nc2c(c(C)nn2C)c(=O)[nH]1
3.5 | 400 | – | CCCOc1ccc(NC(=O)CN2CCN(C)CC2)cc1-c1nc2c(c(C)nn2C)c(=O)[nH]1
2 | 30 | – | CCCOc1ccc(NC(C)=O)cc1-c1nc2c(c(C)nn2CC)c(=O)[nH]1
30 | 2000 | – | CCOc1ccccc1-c1nc2c(c(C)nn2C)c(=O)[nH]1
50 | 10000 | – | CCCOc1ccccc1-c1nc2ccncc2c(=O)[nH]1
50 | 1000 | – | CCCOc1ccccc1-c1nc(O)c2sccc2n1
4 | 200 | – | CCCOc1ccc(NS(C)(=O)=O)cc1-c1nc2c(c(C)nn2CC)c(=O)[nH]1
10 | 300 | – | CCCOc1ccc(N)cc1-c1nc2c(c(C)nn2C)c(=O)[nH]1
5 | 300 | – | CCCOc1ccc(-c2cccs2)cc1-c1nc2c(c(C)nn2C)c(=O)[nH]1
4 | < 100 | – | CCCOc1ccc(-c2ccc(C)s2)cc1-c1nc2c(c(C)nn2C)c(=O)[nH]1
2 | 40 | – | CCCOc1ccc(NC(=S)NC(=O)OCC)cc1-c1nc2c(c(C)nn2C)c(=O)[nH]1
– | – | 59 | CCC[S+]([O-])c1ccccc1-c1nc2c(c(C)nn2C)c(=O)[nH]1 (stereo unspecified)
1.5 | < 10 | – | CCCOc1ccc(NC(=O)c2cccs2)cc1-c1nc2c(c(C)nn2C)c(=O)[nH]1
2 | 900 | – | CCCOc1ccc(NC(N)=O)cc1-c1nc2c(c(C)nn2C)c(=O)[nH]1
7 | 1500 | – | CCCOc1ccccc1-c1nc2c(c(C)nn2CC(F)(F)F)c(=O)[nH]1
0.8 | 40 | – | CCCOc1ccc(NC(C)=O)cc1-c1nc2c(c(C)nn2C)c(=O)[nH]1
60 | 700 | – | CCCOc1ccccc1-c1nc(O)c2c(C)csc2n1
4 | 100 | – | CCCOc1ccc([N+](=O)[O-])cc1-c1nc2c(c(C)nn2C)c(=O)[nH]1

IC50 [1] [nM] | EC50 [2] [nM] | inhibition [3] [%] | SMILES
2.5 | 200 | – | CCCOc1ccc(-c2csc(C)n2)cc1-c1nc2c(c(C)nn2C)c(=O)[nH]1
30 | 1500 | – | CCCOc1ccccc1-c1nc(O)c2c(C)snc2n1
70 | 350 | – | CCCOc1ccccc1-c1nc2c(c(C)nn2Cc2ccccc2)c(=O)[nH]1
0.1 | 50 | – | CCCOc1ccc([N+](=O)[O-])cc1-c1nc2c(c(C)nn2CC)c(=O)[nH]1
3 | 200 | – | CCCOc1ccc(-c2csc(-c3ccccc3)n2)cc1-c1nc2c(c(C)nn2CC)c(=O)[nH]1
2 | 100 | – | CCCOc1ccc(NC(=O)OC)cc1-c1nc2c(c(C)nn2C)c(=O)[nH]1
7 | 20 | – | CCCOc1ccc(N)cc1-c1nc2c(c(C)nn2CC)c(=O)[nH]1
2 | < 100 | – | CCCOc1ccc(-c2csc(-c3cccnc3)n2)cc1-c1nc2c(c(C)nn2CC)c(=O)[nH]1
3 | 60 | – | CCCOc1ccc(NC(=S)NCC)cc1-c1nc2c(c(C)nn2C)c(=O)[nH]1
2 | < 10 | – | CCCOc1ccc(NC(=O)c2ccc(F)cc2)cc1-c1nc2c(c(C)nn2C)c(=O)[nH]1
5 | > 10000 | – | CCCOc1ccc(Nc2nnc(N)[nH]2)cc1-c1nc2c(c(C)nn2C)c(=O)[nH]1
0.2 | 40 | – | CCCOc1ccc(NC(=O)Nc2ccc(F)cc2)cc1-c1nc2c(c(C)nn2C)c(=O)[nH]1
3 | < 100 | – | CCCOc1ccc(-c2nccs2)cc1-c1nc2c(c(C)nn2C)c(=O)[nH]1
150 | > 10000 | – | CCCOc1ccccc1-c1nc(O)c2c[nH]nc2n1
2.5 | 450 | – | CCCOc1ccc(-c2nc(C)cs2)cc1-c1nc2c(c(C)nn2C)c(=O)[nH]1
1.7 | < 10 | – | CCCOc1ccc(-c2n[nH]c(-c3ccccc3)n2)cc1-c1nc2c(c(C)nn2CC)c(=O)[nH]1
– | 2000 | – | CCCOc1ccccc1-c1nc2nc[nH]c2c(=O)[nH]1
100 | > 10000 | – | CCCOc1ccccc1-c1nc2onc(C)c2c(=O)[nH]1
2 | < 100 | – | CCCOc1ccc(-c2nc(C)cs2)cc1-c1nc2c(c(C)nn2CC)c(=O)[nH]1
4 | 300 | – | CCCOc1ccc(C(=O)CN2CCOCC2)cc1-c1nc2c(c(C)nn2C)c(=O)[nH]1
2 | < 100 | – | CCCOc1ccccc1-c1nc2c(c(C)nn2CC)c(=O)[nH]1
80 | 1500 | – | CCCOc1ccccc1-c1nc(O)c2scc(C)c2n1
3 | 350 | – | CCCOc1ccc(NS(C)(=O)=O)cc1-c1nc2c(c(C)nn2C)c(=O)[nH]1
6 | 900 | – | CCCCn1nc(C)c2c(=O)[nH]c(-c3ccccc3OCCC)nc21
3 | 50 | – | CCCOc1ccc(NC(=O)NCC)cc1-c1nc2c(c(C)nn2C)c(=O)[nH]1
40 | 1000 | – | Cc1nn(C)c2nc(-c3ccccc3OC(C)C)[nH]c(=O)c12
2.5 | 200 | – | CCCOc1ccc(-c2csc(-c3ccccc3)n2)cc1-c1nc2c(c(C)nn2C)c(=O)[nH]1
